In US8785630B2, “Insecticidal triazines and pyrimidines” (Vestaron Corporation, priority 2011, dated 2014):

Each compound was assayed on beet armyworm (Spodoptera exigua) (assay: Insecticidal test for beet armyworm, treated diet surface). Settings: 100 μg/cm^2 on diet surface, first instar larvae, 32 insects per treatment, observations 24, 48 and 96 hours.
Type: in vivo
Procedure: The compounds identified in Table 8 were prepared according to the previous methods and were tested against beet armyworm and corn earworm as follows:
Insecticidal Test for Beet Armyworm (Spodoptera exigua).
To prepare the test solution, the test compound was Formulated at 3499 ppm in solution as 5 mg compound/1.429 mL of 9 parts acetone: 1 part deionized H2O and vortexed to homogenize. 50 μL of the 3499 ppm (equivalent to 100 μg/cm^2 dose on diet surface area) test solution was pipetted upon the surface of 1 mL of solidified cool Southland Products Incorporated Beet Armyworm Diet (201 Stuart Island Road Lake Village, Ark. 71653) using an Eppendorf Repeater Plus with a 1 mL pipette tip. All pipetting of treatments was done in a Labconco Hood. Thirty minutes were allowed for the acetone to evaporate leaving a dose of 100 μg/cm^2 on the surface of the artificial diet. Two 24 hour old first instar Beet Armyworm (Spodoptera Exigua) larvae were placed in each well of the 128 well Bio-BA 128 Bioassay trays (CD International, Pitman, N.J., 08071, USA) using a #0 fine camel hair paint brush. Bioassay trays were sectioned into treatment groups of 8 with 16 replicates per treatment group (32 insects per treatment). Trays containing the treated diet and larvae were covered with a Bio-CV-16 cover (CD International, Pitman, N.J., 08071, USA) and then placed on a rack under florescent lights at 27° C., 20% relative humidity (RH) in the room, and 16 hr light: 8 hr dark for 96 hours. Observations were made 24, 48 and 96 hours after treatment and infestation. The number of insects dead were counted out of the 32 insects total per treatment and the results are given in a table as a percent mortality at a dose of 100 μg/cm^2. When finished, the tray was moved to the −5° C. freezer and left for 24 hr to insure mortality of the remaining S. exigua. After 24 hours, dispose of entire tray into waste bin.
Keys to the table: Mortality refers to activity against beet army worm (Spodoptera exigua) as defined above at the concentration of 100 μg/cm^2 (A=76-100% mortality, B=51-75% mortality, C=26-50% mortality and D=0-25% mortality).

SMILES | mortality at 100 µg/cm2 [%]
Fc1cccc(Cl)c1-c1nc(NCCN2CCOCC2)nc(NN=Cc2ccc(OC(F)(F)F)cc2)n1 [Example 24, 4-(2-chloro-6-fluorophenyl)-N-(2-morpholinoethyl)-6-(2-(4-(trifluoromethoxy)benzylidene)hydrazinyl)-1,3,5-triazin-2-amine] | 76 to 100
CN(C)Nc1nc(NN=Cc2ccc(OC(F)(F)F)cc2)nc(-c2c(F)cccc2Cl)n1 [Example 25, 2-(2-chloro-6-fluorophenyl)-4-(2,2-dimethylhydrazinyl)-6-(2-(4-(trifluoromethoxy)benzylidene)hydrazinyl)-1,3,5-triazine] | 76 to 100
Fc1cccc(Cl)c1-c1nc(NCC2CCOC2)nc(NN=Cc2ccc(OC(F)(F)F)cc2)n1 (stereo not shown) [Example 26, 4-(2-chloro-6-fluorophenyl)-N-((tetrahydrofuran-3-yl)methyl)-6-(2-(4-(trifluoromethoxy)benzylidene)hydrazinyl)-1,3,5-triazin-2-amine] | 0 to 25
FC(F)(F)Oc1ccc(C=NNc2nc(Nc3ccc(Cl)cc3)nc(-c3c(Cl)cc(Cl)cc3Cl)n2)cc1 [Example 27, N-(4-chlorophenyl)-4-(2,4,6-trichlorophenyl)-6-(2-(4-(trifluoromethoxy)benzylidene)hydrazinyl)-1,3,5-triazin-2-amine] | 0 to 25
NCCNc1nc(NN=Cc2ccc(OC(F)(F)F)cc2)nc(-c2c(F)cccc2Cl)n1 [Example 28, N1-(4-(2-chloro-6-fluorophenyl)-6-(2-(4-(trifluoromethoxy)benzylidene)hydrazinyl)-1,3,5-triazin-2-yl)ethane-1,2-diamine] | 0 to 25
COc1cccc(-c2nc(NN=Cc3ccc(OC(F)(F)F)cc3)nc(Nc3ccc(Cl)cc3)n2)c1 [Example 29, N-(4-chlorophenyl)-4-(3-methoxyphenyl)-6-(2-(4-(trifluoromethoxy)benzylidene)hydrazinyl)-1,3,5-triazin-2-amine] | 0 to 25
COc1ccc(-c2nc(NN=Cc3ccc(OC(F)(F)F)cc3)nc(Nc3ccc(Cl)cc3)n2)cc1 [Example 30, N-(4-chlorophenyl)-4-(4-methoxyphenyl)-6-(2-(4-(trifluoromethoxy)benzylidene)hydrazinyl)-1,3,5-triazin-2-amine] | 0 to 25
Fc1cccc(-c2nc(NN=Cc3ccc(OC(F)(F)F)cc3)nc(Nc3ccc(Cl)cc3)n2)c1 [Example 31, N-(4-chlorophenyl)-4-(3-fluorophenyl)-6-(2-(4-(trifluoromethoxy)benzylidene)hydrazinyl)-1,3,5-triazin-2-amine] | 51 to 75
FC(F)(F)Oc1ccc(C=NNc2nc(Nc3ccc(Cl)cc3)nc(-c3ccc(Cl)c(Cl)c3)n2)cc1 [Example 32, N-(4-chlorophenyl)-4-(3,4-dichlorophenyl)-6-(2-(4-(trifluoromethoxy)benzylidene)hydrazinyl)-1,3,5-triazin-2-amine] | 0 to 25
Cc1ccc(-c2nc(NN=Cc3ccc(OC(F)(F)F)cc3)nc(Nc3ccc(Cl)cc3)n2)cc1 [Example 33, N-(4-chlorophenyl)-4-(p-tolyl)-6-(2-(4-(trifluoromethoxy)benzylidene)hydrazinyl)-1,3,5-triazin-2-amine] | 0 to 25
Fc1ccc(Nc2nc(NN=Cc3ccc(OC(F)(F)F)cc3)nc(-c3c(F)cccc3Cl)n2)cc1Cl [Example 34, N-(3-chloro-4-fluorophenyl)-4-(2-chloro-6-fluorophenyl)-6-(2-(4-(trifluoromethoxy)benzylidene)hydrazinyl)-1,3,5-triazin-2-amine] | 76 to 100
Fc1ccc(Nc2nc(NN=Cc3ccc(OC(F)(F)F)cc3)nc(-c3c(F)cccc3Cl)n2)cc1C(F)(F)F [Example 35, 4-(2-chloro-6-fluorophenyl)-N-(4-fluoro-3-(trifluoromethyl)phenyl)-6-(2-(4-(trifluoromethoxy)benzylidene)hydrazinyl)-1,3,5-triazin-2-amine] | 76 to 100
Fc1cccc(Cl)c1-c1nc(NN=Cc2ccc(OC(F)(F)C(F)Cl)cc2)nc(Nc2ccc(Cl)nc2)n1 (stereo not shown) [Example 36, 4-(2-(4-(2-chloro-1,1,2-trifluoroethoxy)benzylidene)hydrazinyl)-6-(2-chloro-6-fluorophenyl)-N-(6-chloropyridin-3-yl)-1,3,5-triazin-2-amine] | 76 to 100
Fc1cccc(Cl)c1-c1nc(NN=Cc2ccc(OC(F)(F)C(F)Cl)cc2)nc(Nc2ccc(Cl)cc2)n1 (stereo not shown) [Example 37, 4-(2-(4-(2-chloro-1,1,2-trifluoroethoxy)benzylidene)hydrazinyl)-6-(2-chloro-6-fluorophenyl)-N-(4-chlorophenyl)-1,3,5-triazin-2-amine] | 76 to 100
Fc1cccc(Cl)c1-c1nc(NN=Cc2ccc(OC(F)(F)F)cc2)nc(Nc2ccc(Cl)c(Cl)c2)n1 [Example 38, 4-(2-chloro-6-fluorophenyl)-N-(3,4-dichlorophenyl)-6-(2-(4-(trifluoromethoxy)benzylidene)hydrazinyl)-1,3,5-triazin-2-amine] | 76 to 100
Fc1cccc(Cl)c1-c1nc(NN=Cc2ccc(OC(F)(F)F)cc2)nc(Nc2cc(Cl)cc(Cl)c2)n1 [Example 39, 4-(2-chloro-6-fluorophenyl)-N-(3,5-dichlorophenyl)-6-(2-(4-(trifluoromethoxy)benzylidene)hydrazinyl)-1,3,5-triazin-2-amine] | 76 to 100
Fc1cccc(Cl)c1-c1nc(NN=Cc2ccc(OC(F)(F)F)cc2)nc(Nc2ccnc(Cl)c2)n1 [Example 40, 4-(2-chloro-6-fluorophenyl)-N-(2-chloropyridin-4-yl)-6-(2-(4-(trifluoromethoxy)benzylidene)hydrazinyl)-1,3,5-triazin-2-amine] | 26 to 50
Fc1cccc(Cl)c1-c1nc(NN=Cc2ccc(OC(F)(F)F)cc2)nc(Nc2ccccc2Cl)n1 [Example 41, 4-(2-chloro-6-fluorophenyl)-N-(2-chlorophenyl)-6-(2-(4-(trifluoromethoxy)benzylidene)hydrazinyl)-1,3,5-triazin-2-amine] | 76 to 100
Fc1ccccc1-c1nc(NN=Cc2ccc(OC(F)(F)F)cc2)nc(Nc2ccc(Cl)nc2)n1 [Example 42, N-(6-chloropyridin-3-yl)-4-(2-fluorophenyl)-6-(2-(4-(trifluoromethoxy)benzylidene)hydrazinyl)-1,3,5-triazin-2-amine] | 76 to 100
CNc1nc(NN=Cc2ccc(OC(F)(F)F)cc2)nc(-c2c(F)cccc2Cl)n1 [Example 43, 4-(2-chloro-6-fluorophenyl)-N-methyl-6-(2-(4-(trifluoromethoxy)benzylidene)hydrazinyl)-1,3,5-triazin-2-amine] | 76 to 100
Fc1ccccc1-c1nc(NN=Cc2ccc(OC(F)(F)F)cc2)nc(Nc2ccc(Cl)cc2)n1 [Example 44, N-(4-chlorophenyl)-4-(2-fluorophenyl)-6-(2-(4-(trifluoromethoxy)benzylidene)hydrazinyl)-1,3,5-triazin-2-amine] | 76 to 100
Fc1cccc(Cl)c1-c1nc(NN=Cc2ccc(OC(F)(F)F)cc2)nc(Nc2ccc(Cl)cn2)n1 [Example 45, 4-(2-chloro-6-fluorophenyl)-N-(5-chloropyridin-2-yl)-6-(2-(4-(trifluoromethoxy)benzylidene)hydrazinyl)-1,3,5-triazin-2-amine] | 26 to 50
FC(F)(F)Oc1ccc(C=NNc2cc(Nc3ccc(Cl)cc3)nc(-c3ccccc3)n2)cc1 [Example 46, N-(4-chlorophenyl)-2-phenyl-6-(2-(4-(trifluoromethoxy)benzylidene)hydrazinyl)pyrimidin-4-amine] | 76 to 100
FC(F)(F)Oc1ccc(C=NNc2nc(Nc3ccc(Cl)nc3)cc(-c3ccccc3)n2)cc1 [Example 47, N-(6-chloropyridin-3-yl)-6-phenyl-2-(2-(4-(trifluoromethoxy)benzylidene)hydrazinyl)pyrimidin-4-amine] | 0 to 25
Fc1cccc(Cl)c1C=NNc1nc(Nc2ccc(Cl)cc2)nc(-c2ccc(OC(F)(F)F)cc2)n1 [Example 48, 4-(2-(2-chloro-6-fluorobenzylidene)hydrazinyl)-N-(4-chlorophenyl)-6-(4-(trifluoromethoxy)phenyl)-1,3,5-triazin-2-amine] | 76 to 100
FC(F)(F)Oc1ccc(C=NNc2nc(Nc3ccc(Cl)cn3)cc(-c3ccccc3)n2)cc1 [Example 49, N-(5-chloropyridin-2-yl)-6-phenyl-2-(2-(4-(trifluoromethoxy)benzylidene)hydrazinyl)pyrimidin-4-amine] | 0 to 25
Oc1ccc(C=NNc2nc(Nc3ccc(Cl)nc3)nc(-c3c(F)cccc3Cl)n2)cc1 [Example 50] | 0 to 25
Fc1cccc(Cl)c1-c1nc(NN=Cc2ccc(C(F)(F)F)cc2)nc(Nc2ccc(Cl)nc2)n1 [Example 51, 4-(2-chloro-6-fluorophenyl)-N-(6-chloropyridin-3-yl)-6-(2-(4-(trifluoromethyl)benzylidene)hydrazinyl)-1,3,5-triazin-2-amine] | 76 to 100
